# Reference: PubChem BioAssay AID1745844 (Carcinogenic Potency Database (CPDB), 2022)
# Active and inactive are the calls of the source. No rule for the calls is given here.
# Test system: rodent lifetime carcinogenesis bioassay, tumor incidence TD50
# Assay: carcinogenic potency in animals, long-term in vivo studies, CPDB compilation (AID 1745844)
smiles,measurement,setting,value
COc1cc(-c2ccc(N)c(OC)c2)ccc1N,carcinogen call,"mouse, strain BALB/cStCrlfC3Hf/Nctr, females, in drinking water, site: Harderian gland, lesion: adenoma, dosed 78 weeks, study length 78 weeks",negative (inactive)
same,carcinogen call,"mouse, strain BALB/cStCrlfC3Hf/Nctr, females, in drinking water, site: Harderian gland, lesion: adenoma, dosed 112 weeks, study length 112 weeks",negative (inactive)
same,carcinogen call,"mouse, strain BALB/cStCrlfC3Hf/Nctr, females, in drinking water, site: Harderian gland, lesion: carcinoma, dosed 78 weeks, study length 78 weeks",negative (inactive)
same,TD50,"mouse, strain BALB/cStCrlfC3Hf/Nctr, males, in drinking water, site: Harderian gland, lesion: adenoma, dosed 78 weeks, study length 78 weeks",3560 mg/kg/day (inactive)
same,carcinogen call,"mouse, strain BALB/cStCrlfC3Hf/Nctr, males, in drinking water, site: Harderian gland, lesion: adenoma, dosed 112 weeks, study length 112 weeks",negative (inactive)
same,TD50,"mouse, strain ICR/Jcl, males, in feed, site: liver, lesion: hepatoma, dosed 65 weeks, study length 65 weeks",73.8 mg/kg/day
same,TD50,"rat, strain Fischer 344, females, in drinking water, site: Zymbal's gland, lesion: adenoma + carcinoma + carcinoma, bilateral, dosed 91 weeks, study length 93 weeks",6.74 mg/kg/day
same,TD50,"rat, strain Fischer 344, females, in drinking water, site: Zymbal's gland, lesion: adenoma, dosed 91 weeks, study length 93 weeks",27.5 mg/kg/day
same,TD50,"rat, strain Fischer 344, females, in drinking water, site: Zymbal's gland, lesion: carcinoma + carcinoma, bilateral, dosed 91 weeks, study length 93 weeks",8.41 mg/kg/day
same,TD50,"rat, strain Fischer 344, females, in drinking water, site: all sites, lesion: mononuclear-cell leukemia, dosed 91 weeks, study length 93 weeks",6.71 mg/kg/day
same,TD50,"rat, strain Fischer 344, females, in drinking water, site: any site (literature study), lesion: several types, types named in the paper, dosed 91 weeks, study length 93 weeks",1.09 mg/kg/day
same,TD50,"rat, strain Fischer 344, females, in drinking water, site: cervix uteri + uterus, lesion: carcinoma + papillary adenoma + adenoma, dosed 91 weeks, study length 93 weeks",14 mg/kg/day
same,TD50,"rat, strain Fischer 344, females, in drinking water, site: cervix uteri + uterus, lesion: papillary adenoma + adenoma, dosed 91 weeks, study length 93 weeks",15.8 mg/kg/day
same,TD50,"rat, strain Fischer 344, females, in drinking water, site: clitoral gland + cervix uteri + colon, descending + liver + mammary gland + palate + pharynx + rectum + skin + tongue + uterus + Zymbal's glan, lesion: adenoma + adenoma, bilateral + carcinoma + carcinoma, bilateral + papillary adenoma + adenocarcinoma + adenomatous polyp + hepatocellu, dosed 91 weeks, study length 93 weeks",1.19 mg/kg/day
same,TD50,"rat, strain Fischer 344, females, in drinking water, site: clitoral gland, lesion: adenoma + adenoma, bilateral + carcinoma + carcinoma, bilateral, dosed 91 weeks, study length 93 weeks",1.6 mg/kg/day
same,TD50,"rat, strain Fischer 344, females, in drinking water, site: clitoral gland, lesion: adenoma + adenoma, bilateral, dosed 91 weeks, study length 93 weeks",3.84 mg/kg/day
same,TD50,"rat, strain Fischer 344, females, in drinking water, site: clitoral gland, lesion: carcinoma + carcinoma, bilateral, dosed 91 weeks, study length 93 weeks",2.62 mg/kg/day
same,TD50,"rat, strain Fischer 344, females, in drinking water, site: colon, descending + rectum, lesion: adenocarcinoma + adenomatous polyp, dosed 91 weeks, study length 93 weeks",44.3 mg/kg/day
same,TD50,"rat, strain Fischer 344, females, in drinking water, site: liver, lesion: hepatocellular adenoma + hepatocellular carcinoma + neoplastic nodule, dosed 91 weeks, study length 93 weeks",33.3 mg/kg/day
same,TD50,"rat, strain Fischer 344, females, in drinking water, site: liver, lesion: hepatocellular carcinoma + neoplastic nodule, dosed 91 weeks, study length 93 weeks",33.3 mg/kg/day
same,TD50,"rat, strain Fischer 344, females, in drinking water, site: mammary gland, lesion: adenocarcinoma + adenoma + fibroadenoma, dosed 91 weeks, study length 93 weeks",3.24 mg/kg/day
same,TD50,"rat, strain Fischer 344, females, in drinking water, site: mammary gland, lesion: adenocarcinoma, dosed 91 weeks, study length 93 weeks",7.7 mg/kg/day
same,TD50,"rat, strain Fischer 344, females, in drinking water, site: mammary gland, lesion: adenoma + fibroadenoma, dosed 91 weeks, study length 93 weeks",6.22 mg/kg/day
same,TD50,"rat, strain Fischer 344, females, in drinking water, site: mammary gland, lesion: fibroadenoma, dosed 91 weeks, study length 93 weeks",7.05 mg/kg/day
same,TD50,"rat, strain Fischer 344, females, in drinking water, site: palate + pharynx + tongue, lesion: squamous-cell carcinoma + squamous-cell papilloma, dosed 91 weeks, study length 93 weeks",13.8 mg/kg/day
same,TD50,"rat, strain Fischer 344, females, in drinking water, site: palate + tongue, lesion: squamous-cell carcinoma, dosed 91 weeks, study length 93 weeks",113 mg/kg/day
same,TD50,"rat, strain Fischer 344, females, in drinking water, site: palate + tongue, lesion: squamous-cell papilloma, dosed 91 weeks, study length 93 weeks",16.6 mg/kg/day
same,TD50,"rat, strain Fischer 344, females, in drinking water, site: palate, lesion: squamous-cell carcinoma + squamous-cell papilloma, dosed 91 weeks, study length 93 weeks",45.3 mg/kg/day
same,TD50,"rat, strain Fischer 344, females, in drinking water, site: palate, lesion: squamous-cell papilloma, dosed 91 weeks, study length 93 weeks",47.8 mg/kg/day
same,TD50,"rat, strain Fischer 344, females, in drinking water, site: pituitary gland, lesion: adenoma + pars distalis adenoma + pars distalis carcinoma, dosed 91 weeks, study length 93 weeks",9.4 mg/kg/day
same,TD50,"rat, strain Fischer 344, females, in drinking water, site: pituitary gland, lesion: adenoma + pars distalis adenoma, dosed 91 weeks, study length 93 weeks",8.84 mg/kg/day
same,TD50,"rat, strain Fischer 344, females, in drinking water, site: skin, lesion: basal-cell adenoma + basal-cell carcinoma, dosed 91 weeks, study length 93 weeks",10.2 mg/kg/day
same,TD50,"rat, strain Fischer 344, females, in drinking water, site: skin, lesion: basal-cell adenoma, dosed 91 weeks, study length 93 weeks",12.3 mg/kg/day
same,TD50,"rat, strain Fischer 344, females, in drinking water, site: tongue, lesion: squamous-cell carcinoma + squamous-cell papilloma, dosed 91 weeks, study length 93 weeks",19.9 mg/kg/day
same,TD50,"rat, strain Fischer 344, females, in drinking water, site: uterus, lesion: endometrial stromal polyp, dosed 91 weeks, study length 93 weeks",11.6 mg/kg/day
same,TD50,"rat, strain Fischer 344, males, in drinking water, site: Zymbal's gland, lesion: adenoma + adenoma, bilateral + carcinoma + carcinoma, bilateral, dosed 88 weeks, study length 92 weeks",3.02 mg/kg/day
same,TD50,"rat, strain Fischer 344, males, in drinking water, site: Zymbal's gland, lesion: adenoma + adenoma, bilateral, dosed 88 weeks, study length 92 weeks",5.84 mg/kg/day
same,TD50,"rat, strain Fischer 344, males, in drinking water, site: Zymbal's gland, lesion: carcinoma + carcinoma, bilateral, dosed 88 weeks, study length 92 weeks",6.71 mg/kg/day
same,TD50,"rat, strain Fischer 344, males, in drinking water, site: adrenal medulla, lesion: pheochromocytoma benign, bilateral + pheochromocytoma, benign, dosed 88 weeks, study length 92 weeks",2.06 mg/kg/day
same,TD50,"rat, strain Fischer 344, males, in drinking water, site: adrenal medulla, lesion: pheochromocytoma benign, bilateral + pheochromocytoma, malignant + pheochromocytoma, benign, dosed 88 weeks, study length 92 weeks",2.11 mg/kg/day
same,TD50,"rat, strain Fischer 344, males, in drinking water, site: all sites + colon, ascending + cecum + colon + colon, descending + duodenum + ileum + jejunum + liver + palate + pharynx + preputial gland + rec, lesion: mesothelioma, benign + mesothelioma, malignant + adenomatous polyp + mucinous cystadenocarcinoma + adenocarcinoma + hepatocellular, dosed 88 weeks, study length 92 weeks",0.677 mg/kg/day
same,TD50,"rat, strain Fischer 344, males, in drinking water, site: all sites, lesion: mesothelioma, benign + mesothelioma, malignant, dosed 88 weeks, study length 92 weeks",27.4 mg/kg/day
same,TD50,"rat, strain Fischer 344, males, in drinking water, site: all sites, lesion: mononuclear-cell leukemia, dosed 88 weeks, study length 92 weeks",2.5 mg/kg/day
same,TD50,"rat, strain Fischer 344, males, in drinking water, site: any site (literature study), lesion: several types, types named in the paper, dosed 88 weeks, study length 92 weeks",0.565 mg/kg/day
same,TD50,"rat, strain Fischer 344, males, in drinking water, site: brain + cerebellum, cerebrum + cerebrum + cerebellum, lesion: astrocytoma, malignant, dosed 88 weeks, study length 92 weeks",10.9 mg/kg/day
same,TD50,"rat, strain Fischer 344, males, in drinking water, site: cecum + colon + colon, descending + rectum, lesion: mucinous cystadenocarcinoma + adenocarcinoma, dosed 88 weeks, study length 92 weeks",38 mg/kg/day
same,TD50,"rat, strain Fischer 344, males, in drinking water, site: colon, ascending + cecum + colon + colon, descending + rectum, lesion: adenomatous polyp + mucinous cystadenocarcinoma + adenocarcinoma, dosed 88 weeks, study length 92 weeks",9.91 mg/kg/day
same,TD50,"rat, strain Fischer 344, males, in drinking water, site: colon, ascending + colon, descending + rectum, lesion: adenomatous polyp, dosed 88 weeks, study length 92 weeks",13.6 mg/kg/day
same,TD50,"rat, strain Fischer 344, males, in drinking water, site: duodenum + ileum + jejunum, lesion: adenocarcinoma + mucinous cystadenocarcinoma, dosed 88 weeks, study length 92 weeks",8.44 mg/kg/day
same,TD50,"rat, strain Fischer 344, males, in drinking water, site: liver, lesion: hepatocellular adenoma + hepatocellular carcinoma + neoplastic nodule, dosed 88 weeks, study length 92 weeks",7.8 mg/kg/day
same,TD50,"rat, strain Fischer 344, males, in drinking water, site: liver, lesion: hepatocellular carcinoma + neoplastic nodule, dosed 88 weeks, study length 92 weeks",7.8 mg/kg/day
same,TD50,"rat, strain Fischer 344, males, in drinking water, site: liver, lesion: neoplastic nodule, dosed 88 weeks, study length 92 weeks",12.4 mg/kg/day
same,TD50,"rat, strain Fischer 344, males, in drinking water, site: palate + pharynx + tongue, lesion: squamous-cell carcinoma + squamous-cell papilloma, dosed 88 weeks, study length 92 weeks",4.22 mg/kg/day
same,TD50,"rat, strain Fischer 344, males, in drinking water, site: palate, lesion: squamous-cell carcinoma + squamous-cell papilloma, dosed 88 weeks, study length 92 weeks",8.21 mg/kg/day
same,TD50,"rat, strain Fischer 344, males, in drinking water, site: palate, lesion: squamous-cell papilloma, dosed 88 weeks, study length 92 weeks",8.35 mg/kg/day
same,TD50,"rat, strain Fischer 344, males, in drinking water, site: pharynx + tongue, lesion: squamous-cell papilloma, dosed 88 weeks, study length 92 weeks",4.49 mg/kg/day
same,TD50,"rat, strain Fischer 344, males, in drinking water, site: preputial gland, lesion: adenoma + adenoma, bilateral + carcinoma + carcinoma, bilateral, dosed 88 weeks, study length 92 weeks",1.78 mg/kg/day
same,TD50,"rat, strain Fischer 344, males, in drinking water, site: preputial gland, lesion: adenoma + adenoma, bilateral, dosed 88 weeks, study length 92 weeks",3.28 mg/kg/day
same,TD50,"rat, strain Fischer 344, males, in drinking water, site: preputial gland, lesion: carcinoma + carcinoma, bilateral, dosed 88 weeks, study length 92 weeks",4.65 mg/kg/day
same,TD50,"rat, strain Fischer 344, males, in drinking water, site: skin, lesion: basal-cell adenoma + basal-cell carcinoma + sebaceous gland carcinoma + sebaceous adenoma, dosed 88 weeks, study length 92 weeks",0.767 mg/kg/day
same,TD50,"rat, strain Fischer 344, males, in drinking water, site: skin, lesion: basal-cell adenoma + basal-cell carcinoma, dosed 88 weeks, study length 92 weeks",0.77 mg/kg/day
same,TD50,"rat, strain Fischer 344, males, in drinking water, site: skin, lesion: basal-cell adenoma + sebaceous adenoma, dosed 88 weeks, study length 92 weeks",0.785 mg/kg/day
same,TD50,"rat, strain Fischer 344, males, in drinking water, site: skin, lesion: basal-cell adenoma, dosed 88 weeks, study length 92 weeks",0.789 mg/kg/day
same,TD50,"rat, strain Fischer 344, males, in drinking water, site: skin, lesion: basal-cell carcinoma + sebaceous gland carcinoma, dosed 88 weeks, study length 92 weeks",6.5 mg/kg/day
same,TD50,"rat, strain Fischer 344, males, in drinking water, site: skin, lesion: basal-cell carcinoma, dosed 88 weeks, study length 92 weeks",6.55 mg/kg/day
same,TD50,"rat, strain Fischer 344, males, in drinking water, site: skin, lesion: keratoacanthoma, dosed 88 weeks, study length 92 weeks",9.13 mg/kg/day
same,TD50,"rat, strain Fischer 344, males, in drinking water, site: skin, lesion: sebaceous gland carcinoma + sebaceous adenoma, dosed 88 weeks, study length 92 weeks",24.6 mg/kg/day
same,TD50,"rat, strain Fischer 344, males, in drinking water, site: skin, lesion: squamous-cell carcinoma + squamous-cell papilloma, dosed 88 weeks, study length 92 weeks",2.01 mg/kg/day
same,TD50,"rat, strain Fischer 344, males, in drinking water, site: skin, lesion: squamous-cell carcinoma, dosed 88 weeks, study length 92 weeks",2.35 mg/kg/day
same,TD50,"rat, strain Fischer 344, males, in drinking water, site: skin, lesion: squamous-cell papilloma, dosed 88 weeks, study length 92 weeks",6.6 mg/kg/day
same,TD50,"rat, strain Fischer 344, males, in drinking water, site: subcutaneous tissue, lesion: fibroma + neurofibroma, dosed 88 weeks, study length 92 weeks",5.19 mg/kg/day
same,TD50,"rat, strain Fischer 344, males, in drinking water, site: subcutaneous tissue, lesion: fibroma, dosed 88 weeks, study length 92 weeks",13.9 mg/kg/day
same,TD50,"rat, strain Fischer 344, males, in drinking water, site: subcutaneous tissue, lesion: fibrosarcoma + fibroma + neurofibroma + sarcoma, dosed 88 weeks, study length 92 weeks",6.49 mg/kg/day
same,TD50,"rat, strain Fischer 344, males, in drinking water, site: subcutaneous tissue, lesion: fibrosarcoma + fibroma, dosed 88 weeks, study length 92 weeks",13.6 mg/kg/day
same,TD50,"rat, strain Fischer 344, males, in drinking water, site: testis, lesion: interstitial-cell adenoma, bilateral + interstitial-cell adenoma, dosed 88 weeks, study length 92 weeks",0.612 mg/kg/day
same,TD50,"rat, strain Fischer 344, males, in drinking water, site: thyroid gland, lesion: c-cell adenoma + c-cell carcinoma, dosed 88 weeks, study length 92 weeks",4.7 mg/kg/day
same,TD50,"rat, strain Fischer 344, males, in drinking water, site: thyroid gland, lesion: c-cell adenoma, dosed 88 weeks, study length 92 weeks",6.92 mg/kg/day
same,TD50,"rat, strain Fischer 344, males, in drinking water, site: tongue, lesion: squamous-cell carcinoma + squamous-cell papilloma, dosed 88 weeks, study length 92 weeks",8.25 mg/kg/day
same,TD50,"rat, strain Fischer 344, males, in drinking water, site: tongue, lesion: squamous-cell papilloma, dosed 88 weeks, study length 92 weeks",9.16 mg/kg/day
